According to patent publication US4147797A, “Spiro-furanohydantoin derivatives” (Pfizer Inc., priority 1978, dated 1979):

Tests used:
[1] = system: sorbitol accumulation in the sciatic nerve of streptozotocinized (i.e., diabetic) rats; assay: inhibition of sorbitol accumulation in the sciatic nerve of streptozotocinized (diabetic) rats; type: in vivo; settings: 25 mg/kg oral at 4, 8 and 24 hours after streptozotocin; sorbitol measured 27 hours after induction of diabetes; compared to untreated animals
Experimental: (§1) The activity of the compounds of the present invention as agents for the control of chronic diabetic complications may be determined by a number of standard biological or pharmacological tests. Suitable tests include (1) measuring their ability to inhibit the enzyme activity of isolated aldose reductase and (2) measuring their ability to reduce or inhibit sorbitol accumulation in the sciatic nerve of acutely streptozotocinized (i.e., diabetic) rats.
The compounds of Examples 1 and 2 were tested for their ability to reduce or inhibit sorbitol accumulation in the sciatic nerve of streptozotocinized (i.e., diabetic) rats by the procedure essentially described in U.S. Pat. No. 3,821,383. In the present study, the amount of sorbitol accumulation in the sciatic nerves was measured 27 hours after induction of diabetes. The compounds were administered orally at the dose levels indicated at 4, 8 and 24 hours following the administration of streptozotocin. The results obtained in this manner are presented as the percent inhibition (%) obtained at a 25 mg/kg dose compared to the untreated animal standard (i.e., the untreated animal where sorbitol levels normally rise from approximately 50-100 mM/g. tissue to as high as 400 mM/g. tissue in the 27-hour test period): […]

aldose reductase = target: T1, aldose reductase (Bos taurus, UniProt P16116); assay: inhibition of aldose reductase enzyme activity (partially purified enzyme from calf lens); type: biochemical; settings: read-out: 50% Inhibitory Concentration
T1 construct: partially purified aldose reductase enzyme obtained from calf lens; from tissue; host or cells: calf lens
Description: as §1, with “rats. […] Pat. No. 3,821,383 and based on the procedure on Hayman et. al., Journal of Biological Chemistry, 240, 877 (1965). The substrate employed was partially purified aldose reductase enzyme obtained from calf lens.” for “rats.”

IC50 (aldose reductase) [µM]	SMILES	Percent Inhibition at 25 mg/kg [1] [%]
100	Cc1cc2c(o1)CCCC21NC(=O)NC1=O (stereo not shown) [Example 2, 2-methyl-spiro[cyclohexa(b)furan-4,4'-imidazolidine]-2',5'-dione]	2
100	O=C1NC(=O)C2(CCCc3occc32)N1 (stereo not shown) [Example 1, Spiro[cyclohexa(b)furan-4,4'-imidazolidine]-2',5'-dione]	46
